{"source": "patent US20020192159A1", "about": "“Single-patient drug trials used with accumulated database: flowchart” (priority 2001, published 2002)", "key": {"[1]": {"test_system": "patient with perennial allergic rhinitis", "conditions": "for incidence of sedation: day 4 of treatment"}, "individual patient": {"test_system": "individual patient", "test": "SPAS abuse potential test (liking score vs placebo or comparator)", "conditions": "for liking score difference vs placebo: person", "protocol": "Single-patient drug kits can be designed to test for “liking scores,” “abuse potential scores,” and patient's desire to re-use the test article compared to placebo and positive controls.\nIn this example, the abuse potential of the narcotic analgesic codeine is tested. A single-patient trial is conducted in a patient for whom treatment with codeine is deemed appropriate. The patient receives a SPAS test kit containing codeine, an alternative drug, e.g., ibuprofen and a questionnaire designed to elicit the liking score, desirability to re-use test article and abuse potential of the patient to codeine.\nIn another example, in follow-up to the test above, the clinician compares diazepam to secobarbital in the same patient."}, "[2]": {"test_system": "previously tested similar patients", "test": "follow-up of previously tested similar patients in the database (addiction / smoking)"}, "[3]": {"test_system": "hyperactive child (Minimum Brain Dysfunction or Attention Deficit Disorder)", "test": "SPAS single-patient drug trial of methylphenidate vs placebo", "protocol": "The usefulness of methylphenidate (Ritalin) treatment in a hyperactive child (Minimum Brain Dysfunction or Attention Deficit Disorder) is evaluated.\nTechnology: Consists of instructions, “calendar” packaging for drug and a substantially identical looking placebo to assure appropriate dosing and monitoring of compliance, questionnaires and assessment forms and instructions. […] Results are mailed to the physician and, in this case, parent for use in evaluating the usefulness of the therapy. The physician and parent are contacted, e.g., every three months to provide data on therapies utilized, and perceived outcome, until the condition is resolved.\nThe questionnaire portion of the kit includes an initial consent form for the parent or guardian to complete. The questionnaire also provides background information on the study and possible side effects associated with the medication. Also included therein is a form for providing relevant patient and family histories. More importantly, the questionnaire, in this case includes a portion for the weekly input by parents/guardians and school observers for answers to questions relating to the drug evaluation. Physician questionnaires are similarly arranged.\nThe trial calls for 40 mg to be given daily as 10 mg four times daily compared to identical appearing placebo which is also given four times daily. After completing the trial and questionnaire, the data is processed to statistically determine the results."}, "[4]": {"test_system": "patients with the same disorder (hyperactive child)", "test": "pooled SPAS data and follow-up of patients continued on methylphenidate 40 mg daily", "type": "in vivo, human", "protocol": "All results obtained from the data are compared against the results provided by data amassed from a pool of about 200 patients with the same disorder. If, of these 200 patients, 55 experience encouraging results (along with the current patient) they are continued on 40 mg daily treatment. If, of these 55 patients, 5 are lost to follow-up, with 50 remaining for prospective evaluation, the physician continues the patient on 40 mg methylphenidate daily based solely on the isolated SPAS single-patient drug trial results. The physician then reviews the pooled data on the 50 patients. This will be done to understand under what circumstances this individual patient is likely to continue to show benefit from methylphenidate 40 mg treatment, and what conditions lead to treatment failure.\nIf for example, the pool of 50 patients who continue treatment have the following scores following the original SPAS testing:\nAll 50 patients are followed up by telephone interview monthly for nine months or more, and outcomes are prospectively documented.\nThe continuing validation process using pooled data, which is a subject of this invention, provides additional data essential to formulating a rational therapeutic decision."}, "hypertensive person": {"test_system": "hypertensive person", "test": "double-blind single-patient trial of verapamil as therapeutic alternative to propranolol", "type": "in vivo, human", "conditions": "for mean systolic blood pressure increases: end of six week trial, verapamil SR 240 mg vs propranolol SR 180 mg once daily, statistically insignificant; for mean systolic blood pressure increases / mean diastolic pressure: little difference between drugs; for mean diastolic pressure: throughout six week trial", "protocol": "In this example, the validity of using a sustained release formulation of verapamil 240 mg once daily as a therapeutic alternative to sustained release propranolol 180 mg once daily in a hypertensive person is shown. The trial during which the two medications are randomly administered in a double-blind manner is six weeks. The questionnaire used is set up in a manner similar to that described in above examples except that the questions elicit information related to the disease of hypertension. Blood pressure and adverse event reports are taken daily by the patient. […] Sleepiness is reported at equal rates for both drugs. All values are statistically insignificant and the therapeutic alternative selection is objectively validated."}, "[5]": {"conditions": "patients with statistically altered sleep patterns, within two months"}, "[6]": {"conditions": "pool of 50 patients who continue treatment"}}, "note": "Where a name gives a salt, the structure may show the parent alone."}
{"smiles": "CCOC(=O)N1CCC(=C2c3ccc(Cl)cc3CCc3cccnc32)CC1", "note": "[CL, loratidine]", "values": [{"measurement": "incidence of sedation", "setting": "[1]; person", "value": 2, "unit": "on a 3 point scale"}]}
{"smiles": "CN(C)CCC(c1ccc(Cl)cc1)c1ccccn1", "note": "(centres unmarked) [CM, chlorpheniramine maleate]", "values": [{"measurement": "patient's symptoms at reevaluation", "setting": "[1]; 6 and 12 months post-initiation of CM treatment", "value": "well maintained"}, {"measurement": "similar patients well maintained during a year long follow-up", "setting": "[1]; database patients placed on CM after single-patient trials", "value": "37 of the 40"}, {"measurement": "incidence of sedation", "setting": "[1]; person", "value": 2, "unit": "on a 3 point scale"}, {"measurement": "control of most bothersome symptom, sneezing", "setting": "[1]; person, perennial allergic rhinitis", "value": "similarly and effectively controlled"}]}
{"smiles": "COc1ccc2c3c1O[C@H]1[C@@H](O)C=C[C@H]4[C@@H](C2)N(C)CC[C@@]341", "note": "[codeine]", "values": [{"measurement": "liking score", "setting": "individual patient; patient on codeine", "value": "3 out of 5"}, {"measurement": "liking score difference vs placebo", "setting": "individual patient; statistically significant (Bayesian feedback)", "value": 2, "unit": "units"}, {"measurement": "patients who became addicted", "setting": "[2]; Caucasian female patients 30 to 40 years with similar 0 unit difference", "value": "10 out of 1250"}, {"measurement": "patients who became addicted", "setting": "[2]; black male patients 40 to 50 years old with similar 2-unit difference, treated with codeine", "value": "25 out of 600"}, {"measurement": "patients who became addicted", "setting": "[2]; similar patients with 2 unit differences, within three months", "value": "Twenty"}, {"measurement": "patients who became addicted", "setting": "[2]; similar patients with 3 unit differences", "value": "50 out of 110"}]}
{"smiles": "CN1C(=O)CN=C(c2ccccc2)c2cc(Cl)ccc21", "note": "[diazepam]", "values": [{"measurement": "liking score", "setting": "individual patient; patient on diazepam", "value": "4 out of 5"}, {"measurement": "liking score difference vs placebo", "setting": "individual patient; not statistically significant", "value": 0, "unit": "units"}, {"measurement": "level of addiction on follow-up of similar patients", "setting": "[2]", "value": "comparatively low level of addiction"}]}
{"smiles": "COC(=O)C(c1ccccc1)C1CCCCN1", "note": "(centres unmarked) [methylphenidate]", "values": [{"measurement": "patient's attention span", "setting": "[3]; 40 mg daily as 10 mg four times daily vs placebo, methylphenidate periods", "value": "improved substantially"}, {"measurement": "sleep patterns", "setting": "[3]; 40 mg daily, methylphenidate periods", "value": "statistically altered"}, {"measurement": "teacher comments", "setting": "[3]; methylphenidate dosing periods", "value": "corroborate improved attention span"}, {"measurement": "follow-up outcome, patients with no statistically altered sleep disturbances", "setting": "[4]; monthly telephone interview for nine months or more, 40 mg daily", "value": "well maintained"}, {"measurement": "patients who experience encouraging results", "setting": "[4]; of a pool of about 200 patients with the same disorder", "value": 55}, {"measurement": "patients experiencing grand mal seizures", "setting": "[4]; [5]", "value": "two"}, {"measurement": "patients showing severe episodes of bizarre behaviors", "setting": "[4]; [5]", "value": 90, "unit": "%"}, {"measurement": "Sleep Patterns: have been statistically altered", "setting": "[4]; [6]", "value": "50% have been statistically altered"}, {"measurement": "Sleep Patterns: have not been statistically altered", "setting": "[4]; [6]", "value": "50% have not been statistically altered"}, {"measurement": "Teacher Comments: corroborate improved attention span", "setting": "[4]; [6]", "value": "80% corroborate improved attention span"}, {"measurement": "Teacher Comments: do not corroborate improved attention span", "setting": "[4]; [6]", "value": "20% do not corroborate improved attention span"}, {"measurement": "Attention Span: have substantial improvement", "setting": "[4]; pool of 50 patients who continue treatment, scores following original SPAS testing", "value": "100% have substantial improvement"}, {"measurement": "follow-up outcome, patients with statistically altered sleep patterns", "setting": "[4]; within two months, 40 mg daily", "value": "loss of symptom control"}]}
{"smiles": "CN1CCCC1c1cccnc1", "note": "(centres unmarked) [nicotine]", "values": [{"measurement": "liking score", "setting": "individual patient; on average, patient receiving nicotine", "value": "4 out of 5"}, {"measurement": "liking score difference vs placebo", "setting": "individual patient; statistically significant", "value": 3, "unit": "units"}, {"measurement": "patients who are smokers", "setting": "[2]; female Caucasian patients 15 to 17 years old with similar 3-unit difference", "value": "820 out of 975"}]}
{"smiles": "CC(C)NCC(O)COc1cccc2ccccc12", "note": "(centres unmarked) [propranolol]", "values": [{"measurement": "mean systolic blood pressure increases", "setting": "hypertensive person", "value": 3, "unit": "%"}, {"measurement": "sleepiness reported", "setting": "hypertensive person; human, in vivo", "value": "equal rates"}, {"measurement": "mean diastolic pressure", "setting": "hypertensive person", "value": "essentially stable"}]}
{"smiles": "C=CCC1(C(C)CCC)C(=O)NC(=O)NC1=O", "note": "(centres unmarked) [secobarbital]", "values": [{"measurement": "difference in liking scores, diazepam vs secobarbital", "setting": "individual patient; same person, statistically significant difference", "value": "greater addiction potential"}, {"measurement": "level of addiction on follow-up of similar patients", "setting": "[2]", "value": "high level of addiction"}]}
{"smiles": "COc1ccc(CCN(C)CCCC(C#N)(c2ccc(OC)c(OC)c2)C(C)C)cc1OC", "note": "(centres unmarked) [verapamil]", "values": [{"measurement": "mean systolic blood pressure increases", "setting": "hypertensive person", "value": 3, "unit": "%"}, {"measurement": "sleepiness reported", "setting": "hypertensive person; six week trial, both drugs", "value": "equal rates"}, {"measurement": "mean diastolic pressure", "setting": "hypertensive person", "value": "essentially stable"}]}
